Publication PMC12189828, “Substitution of Proline Residues by 4-Fluoro-L-Proline Affects the Mechanism of the Proline-Rich Antimicrobial Peptide Api137” (Antibiotics, 2025)
Where a SMILES comes first, the peptide text is derived from it. [ ]: non-standard residue; d: D form. The star is where a group is joined. Orn(α-tetramethylguanidino) = CN(C)C(=N[C@@H](CCCN)C(=O)*)N(C)C; Pro(trans-4-F) = O=C(O)[C@@H]1C[C@@H](F)CN1

How the values were obtained:
[1] = target: 70S ribosome isolated from E. coli BW25113 (E. coli (endogenous in E. coli BW25113)); test: fluorescence polarisation; direct titration: 2-fold dilution series (22 steps) of crude 70S ribosome extract, cf-labeled peptide (10 uL, 40 nmol/L) added; ribosome preparation buffer (20 mmol/L HEPES-KOH, 6 mmol/L MgCl2, 30 mmol/L NH4Cl, pH 7.6); 28 +/- 1 C, 90 min
[2] = tested on: E. coli RN31; test: Growth inhibition of E. coli RN31 during 90 min exponential growth phase; type: cell-based, Escherichia coli; details: E. coli RN31, 33% TSB, peptide 8 µg/mL, 90 min, OD600; two biological replicates (n = 2)
Procedure: The following steps were performed on ice. Cells were harvested by centrifugation (4000× g, 4 °C, 25 min), washed with TICO buffer (20 mmol/L Hepes-KOH, pH 7.6, 6 mmol/L MgAc2, 30 mmol/L KAc), centrifuged (4000× g, 25 min, 4 °C), and stored at −80 °C. The cell pellet was suspended in TICO buffer (500 µL) and mixed with silica beads (zirconium glass pellets, 100 µm diameter; Carl Roth; Karlsruhe, Germany) to lyse the cells on a FastPrep-24^TM 5G (MP Biomedicals, Solon, OH, USA) using three disruption cycles (30 s, 6.0 m/s) interrupted by 1 min of incubation on ice after each cycle. Cell debris was removed by centrifugation (5000× g, 4 °C, 5 min), the supernatant was transferred to a new reaction tube, centrifuged (20,000× g, 4 °C, 20 min), the absorbance was recorded at 260 nm on a NanoPhotometer® NP80, and the sample was stored at −80 °C. […]

[3] = tested on: in vitro expression of sfGFP in the presence of RF1; test: In vitro transcription-translation (iTT) assay of sfGFP in the presence of RF1; type: biochemical; details: peptide 5 µmol/L, RF1, 37 °C, 2 h, fluorescence; normalized to absence of PrAMPs; n = 3
Procedure: The sfGFP expression analysis relied on the NEB PureExpress Delta RF123 Kit (New England Biolabs, Frankfurt, Germany). The DNA template encoding sfGFP with a UAG stop codon was amplified from the pY71sfGFP vector by PCR using the primers sfGFP fwd ([…]) and sfGFP rev ([…]). The release factor RF1 of the kit was diluted 50-fold (v/v) in 1× Pure System Buffer (PSB, 1 mol/L magnesium acetate, 0.5 mol/L K3PO4 (pH 7.3), 1 mol/L potassium glutamate, 1 mol/L NH4Cl, 0.5 mol/L CaCl2, 1 mol/L spermidine, 0.1 mol/L putrescine, 0.1 mol/L DTT). sfGFP expression was performed in a freshly prepared mixture of kit solution A (2 µL), kit solution B (1.5 µL), 50-fold diluted RF1 (0.5 µL), sfGFP template (0.1325 pmol, 35 ng) or water as control (0.25 µL), PSB (0.25 µL), and a PrAMP (50 or 0 µmol/L) dissolved in water (0.5 µL). The reaction mixture was transferred to a black 384-well plate (flat bottom, PS, 784900, Greiner Bio-One GmbH), covered with a lid, and incubated (37 °C, 2 h) in a microplate reader (Gemini EM, Molecular Devices, San Jose, CA, USA). Fluorescence was recorded every 10 min (λex = 485 nm, λem = 535 nm).

[4] = tested on: 50S subunit assembly / 70S ribosome in E. coli RN31; test: Ribosome profile analysis (RPA), sucrose gradient of E. coli RN31 lysate; type: cell-based, Escherichia coli; details: E. coli RN31, 33% TSB, peptide 8 µg/mL, 90 min, 5–25% sucrose gradient; n = 2 (Api137 n = 7)
Procedure: E. coli RN31 was grown in 33% TSB (37 °C, 200 rpm) from a starting OD600 of 0.05 to an OD600 of 0.2, measured on a NanoPhotometer® (NP80; Implen; Westlake Village, CA, USA), and divided into subcultures that were inoculated with a peptide ([…]) before being cultured for 90 min (37 °C, 200 rpm). The following steps were performed on ice. Cells were harvested by centrifugation (4000× g, 4 °C, 25 min), washed with TICO buffer (20 mmol/L Hepes-KOH, pH 7.6, 6 mmol/L MgAc2, 30 mmol/L KAc), centrifuged (4000× g, 25 min, 4 °C), and stored at −80 °C. The cell pellet was suspended in TICO buffer (500 µL) and mixed with silica beads (zirconium glass pellets, 100 µm diameter; Carl Roth; Karlsruhe, Germany) to lyse the cells on a FastPrep-24^TM 5G (MP Biomedicals, Solon, OH, USA) using three disruption cycles (30 s, 6.0 m/s) interrupted by 1 min of incubation on ice after each cycle. Cell debris was removed by centrifugation (5000× g, 4 °C, 5 min), the supernatant was transferred to a new reaction tube, centrifuged (20,000× g, 4 °C, 20 min), the absorbance was recorded at 260 nm on a NanoPhotometer® NP80, and the sample was stored at −80 °C.
A 5% (w/v) sucrose solution (6.5 mL) in TICO buffer containing 2-mercaptoethanol (4 mmol/L) was poured into an open-top centrifuge tube (13.2 mL, 14 × 89 mm, Beckman Coulter) and bottomed with a 25% (w/v) sucrose solution (6.5 mL) in TICO buffer containing 2-mercaptoethanol (4 mmol/L) using a cannula. The tube was sealed with parafilm and placed horizontally at 4 °C for 3 h and vertically at 4 °C for 30 min. A portion of the upper layer (550 µL) was replaced by lysate (500 µL, A260 = 30) and centrifuged using a swing-out rotor (SW 41 Ti, 52,500× g, 4 °C, 19 h) without a brake. The contents were transferred from bottom-up to obtain equal volumes in all wells of a black 96-well plate with a flat bottom (96 Well PP black Greiner Bio-One GmbH, Frickenhausen, Germany) using the Äkta Purifier 10 system, and absorbance was recorded at a wavelength of 254 nm. Fluorescence was measured in the plate using the PARADIGM at excitation (λex) and emission (λem) wavelengths of 485 nm and 535 nm for eGFP and 585 nm and 635 nm, respectively, for mCherry and normalized to the 70S ribosome peak (set to 100%).

[5] = target: 70S ribosomes isolated from E. coli BW25113 (Escherichia coli, UniProt P60723+P61175); test: Fluorescence polarization, competition with cf-Api137 for 70S ribosome binding (Ki); details: ratio of Ki to the Ki of Api137
Procedure: E. coli BW25113 were cultivated in LB medium and harvested by centrifugation (5000× g, 15 min, 4 °C) at an OD600 of 3–4. Cell pellets were washed in ribosome preparation buffer (20 mmol/L HEPES-KOH, 6 mmol/L MgCl2, 30 mmol/L NH4Cl, pH 7.6, 4 °C), centrifuged (4100× g, 30 min, 4 °C), and resuspended in ribosome preparation buffer (0.5 g/L) containing freshly added 2-mercaptoethanol (4 mmol/L) and lysozyme. Cells were incubated on ice for 30 min and disrupted in six cycles using a FastPrep-24^TM 5G instrument (MP Biomedicals, Eschwege, Germany) with the BigPrep 50 mL setting (40 s, 4.0 m/s), interrupted by one minute of incubation on ice between the cycles. After a centrifugation step (1620× g, 5 min, 4 °C), DNase I (5 U/mL) was added to the supernatant and incubated for 1 h on ice. Cell debris was removed by centrifugation at 16,000× g (30 min, 4 °C) and twice at 32,000× g (60 min, 4 °C). Crude ribosomes were obtained by centrifugation at 165,000× g (17 h, 4 °C). […]
Inhibition constants (Ki) were measured for the 70S ribosome extract using cf-labeled and unlabeled peptides in ribosome preparation buffer. […] Fluorescence polarization was determined on a PARADIGM^TM microplate reader in the top reading position (λex = 485 nm, λem = 535 nm). […] Ki values were calculated as described by Mathias and Jung.

[6] = target: 70S ribosome isolated from E. coli BW25113 (E. coli (endogenous in E. coli BW25113)); test: fluorescence polarisation; competition: 2-fold dilution series (21 steps) of unlabeled peptide (20 uL, 300 umol/L) pre-incubated 90 min with crude 70S ribosome extract (at ~90% of the upper Kd plateau), then cf-Api137 (10 uL, 80 nmol/L) for 90 min; ribosome preparation buffer, 28 +/- 1 C; Ki calculated from IC50

## 5(6)-carboxyfluorescein-labeled Api137 (peptide)
[1]
  Kd: 244 nM

## CC[C@H](C)[C@H](NC(=O)[C@H](Cc1ccc(O)cc1)NC(=O)[C@@H](NC(=O)[C@@H]1CCCN1C(=O)[C@H](CCCNC(=N)N)NC(=O)[C@H](CC(N)=O)NC(=O)[C@H](CC(N)=O)NC(=O)[C@H](CCCN)N=C(N(C)C)N(C)C)C(C)C)C(=O)N1CCC[C@H]1C(=O)N[C@@H](CCCNC(=N)N)C(=O)N1CCC[C@H]1C(=O)N[C@@H](CCCNC(=N)N)C(=O)N1C[C@H](F)C[C@H]1C(=O)N1CCC[C@H]1C(=O)N[C@@H](Cc1c[nH]cn1)C(=O)N1CCC[C@H]1C(=O)N[C@@H](CCCNC(=N)N)C(=O)N[C@@H](CC(C)C)C(=O)O [Api844] ({Orn(α-tetramethylguanidino)}-NNRPVYIPRPR[Pro(trans-4-F)]PHPRL-OH)
[2]
  reduction of bacterial growth vs untreated control: 70%
[3]
  Residual iTT (sfGFP expression relative to no PrAMP): 28 ± 1.2%
[4]
  RPA [pre-50S formation]: yes
[5]
  fold higher Ki than Api137: 8 fold

## Api137 (peptide)
[6]
  Ki: 2.6 nM
